The subject of data set [1] is Il1r1 mRNA. In words: RT-qPCR of Il1r1 mRNA in IL-1β-treated hepatocytes. In kind it is cell-based, rat. The following applies: with IL-1β; normalized to Ef1a mRNA; versus IL-1β alone. How it is done:
(§1) After acclimatization, the Wistar rats were euthanized by the intraperitoneal administration of an anesthetic combination of medetomidine hydrochloride, midazolam, and butorphanol tartrate. Rat livers were used to prepare hepatocytes as previously described. In brief, the liver was perfused with collagenase. The cells were resuspended in Williams’ E (WE) medium supplemented with 10% newborn calf serum, 10 nM dexamethasone, and 10 nM human insulin and seeded at 1.2 ×10^6 cells per 35 mm diameter dish. After the medium was replaced with serum-free WE medium, the cells were incubated overnight. The next day, the medium was replaced with WE medium containing 1 nM recombinant rat IL-1β [54] and/or a fraction or compound. The hepatocytes were further incubated at 37 °C for 4 h before RNA extraction or for 8 h before measuring the NO levels and performing a Western blot analysis of the cell lysates.
(§2) Hepatocytes were lysed in Sepasol I Super G solution (Nacalai Tesque, Inc.) to extract total RNA, which was purified using an RNAqueous Kit and a TURBO DNA-free Kit (Applied Biosystems, Austin, TX, USA). The resulting RNA was converted to cDNA, which was amplified by PCR in triplicate with primers, SYBR Green I, and the Thermal Cycler Dice Real-Time System (Takara Bio Inc.). Ct values were calculated by the ΔΔCt method and then normalized to elongation factor 1α (Ef1a) mRNA [18, 54]. […]
In general terms: Real-time PCR tracks product formation cycle by cycle.

Data set [2] concerns primary-cultured rat hepatocytes. In words: LDH activity in the hepatocyte medium (cytotoxicity). The format is cell-based. The following applies: for Cytotoxicity / LDH activity of the medium: hepatocytes, 8 h incubation; for LDH activity in the medium (cytotoxicity): at the concentrations of the NO assay, 8 h. As for the experimental part:
(§3) After 8 h of incubation with 1 nM IL-1β and/or a fraction or compound, nitrite (a stable metabolite of NO) was measured in triplicate using the Griess method. The NO concentration in the medium alone was set at 0%, whereas the concentration in the medium including IL-1β alone was set at 100%. […] Cytotoxicity was monitored by estimating the LDH activity in the medium using LDH Cytotoxicity Detection Kits (Takara Bio Inc., Kusatsu, Japan). The Griess reagent was added to the medium and incubated at 20–23 °C for 5 min, and the absorbance at 540 nm was measured to determine the decrease in nitrite. The LDH activity of the whole-cell extract was assumed to be 100%, whereas the LDH activity of the medium alone was assumed to have no cytotoxicity (i.e., less than 5% of the LDH activity of the whole-cell extract).

For a further data set, the system named is iNOS mRNA. The experiment in a line: RT-qPCR of iNOS mRNA in IL-1β-treated hepatocytes. The format is cell-based, rat. The settings on record: with IL-1β; normalized to Ef1a mRNA; versus IL-1β alone. How it is done:
as §1
(§4) Hepatocytes were lysed in Sepasol I Super G solution (Nacalai Tesque, Inc.) to extract total RNA, which was purified using an RNAqueous Kit and a TURBO DNA-free Kit (Applied Biosystems, Austin, TX, USA). The resulting RNA was converted to cDNA, which was amplified by PCR in triplicate with primers, SYBR Green I, and the Thermal Cycler Dice Real-Time System (Takara Bio Inc.). Ct values were calculated by the ΔΔCt method and then normalized to elongation factor 1α (Ef1a) mRNA [18, 54]. The mRNA levels normalized to the total RNA from the livers of the […] were set at 100%.

Another data set has as its system Tnf mRNA. In words: RT-qPCR of Tnf mRNA in IL-1β-treated hepatocytes. In kind it is cell-based, rat. The settings on record: with IL-1β; normalized to Ef1a mRNA; versus IL-1β alone. How it is done:
as §1, §4

Data set [3] deals with NO production in IL-1β-treated rat hepatocytes. In words: NO production (nitrite, Griess method) in IL-1β-treated primary-cultured rat hepatocytes. In kind it is cell-based. The following applies: for IC50: Rattus norvegicus, Hepatocyte. How it is done:
as §1, §3

Data set [4] shares this test system. The settings on record: cited from earlier work.
In the next data set the test system is lymphotoxin β (Ltb) mRNA. In words: RT-qPCR of Ltb mRNA in IL-1β-treated hepatocytes. The format is cell-based, rat. The settings on record: with IL-1β, 4 h; normalized to Ef1a mRNA. As for the experimental part: as §1, §2
The subject of data set [5] is rat liver injuries caused by ischemia–reperfusion and partial hepatectomy. Set-up: method as in PMID 38727775. The following applies: cited from earlier work.
In another data set the test system is iNOS protein. The experiment in a line: Immunoblot of iNOS protein in IL-1β-treated hepatocytes. The format is cell-based, rat. The following applies: with IL-1β, 8 h; β-tubulin control. How it is done: as §1
Hepatocyte lysates were prepared, resolved on a 10% sodium dodecyl sulfate–polyacrylamide gel, and transferred onto a membrane, as previously described. […] The protein of interest was visualized by ECL Western blotting Detection Reagents (Cytiva, Tokyo, Japan) and detected using an Amersham Imager 600 (Cytiva).

The test system of data set [6] is iNOS antisense transcript (iNOS-AS). The experiment in a line: RT-qPCR of iNOS antisense transcript in IL-1β-treated hepatocytes. In kind it is cell-based, rat. The following applies: with IL-1β; RNA 3 h after addition. How it is done: as §1, with “The hepatocytes were further incubated at 37 °C for 4 h before RNA extraction or for 8 h before measuring the NO levels and performing a Western blot analysis of the cell lysates.” left out
as §4

For data set [7] the test system is unchanged. On the set-up: method as in PMID 28681120, doi:10.7243/2050-0874-1-2, PMID 27774888. The following applies: cited from earlier work.
Data set [8] deals with Il1r1 mRNA. The settings on record: cited from earlier work.
Data set [9] deals with LPS-treated RAW264.7 cells. Set-up: method as in PMID 38339007. The settings on record: read-out: IC50 for NO production; cited from earlier work.
Setting [10] is: 1 nM IL-1β, 8 h, means ± SDs, at least three experiments, read-out: IC50 (μM) for NO production in IL-1β-stimulated hepatocytes.
Setting [11] is: constituents of Atractylodes chinensis rhizomes.
Setting [12] is: means ± SDs, read-out: IC50 (μM) for NO production in IL-1β-stimulated hepatocytes.

For orientation: IC50 means the midpoint of a concentration-inhibition curve.

“Also recorded” adds a separate entry of the source. Where two headings read alike, the source gives them in different places.

On to `COc1cc(C2OCC3C(c4ccc(OC)c(OC)c4)OCC23)ccc1O` (single isomer, unassigned; (+)) [(+)-Phillygenin, (+)-phillygenin], for which the “Il1r1 mRNA level” value with Il1r1 mRNA [1] was “decreased”. The “Cytotoxicity / LDH activity of the medium” value (“Cytotoxicity / LDH activity” for short) in [2] was “background LDH activity at concentrations up to 300 μM; also recorded: without showing cytotoxicity”. Moreover, the “iNOS mRNA level” value in the data set on iNOS mRNA was “decreased”. Also, the “Tnf mRNA level” value in the data set on Tnf mRNA was “decreased”. The IC50 in [3] (setting [10]) is 193 ± 47.6 µM.

On to `CC1=CCC[C@H](C)[C@@]12CC[C@@H](C(C)(C)O)C2` [(+)-hinesol], for which, in data set [4] (setting [11]), the “IC50 for inhibition of NO production in hepatocytes” value was “could not be calculated”.

Regarding `C=C[C@H](/C=C\c1ccc(O)cc1)c1ccc(O)cc1` [(−)-Nyasol, (−)-nyasol], in data set [2], the “LDH activity in the medium (cytotoxicity)” value is recorded as < 5 % of the activity of the whole-cell extract. Also, the “Ltb mRNA level” value in the data set on lymphotoxin β (Ltb) mRNA is reported as “significantly reduced”. In addition, the “iNOS mRNA level” value in the data set on iNOS mRNA was “significantly decreased”. In addition, the “Tnf mRNA level” value in the data set with Tnf mRNA is given as “significantly reduced”. Further, the IC50 in data set [3] (setting [10]) was 18.3 ± 2.99 µM.

Regarding `O=c1cc(-c2ccccc2)oc2cc(O)c(O)c(O)c12` [Baicalein, baicalein], in [2], the “LDH activity in the medium (cytotoxicity)” value was < 5 % of the activity of the whole-cell extract. Moreover, in data set [5], the Liver injury result is on record as “attenuated”. Also, the iNOS protein level entry in the data set with iNOS protein was “reduced”. The “iNOS mRNA level” value in the data set with iNOS mRNA is recorded as “reduced”. In addition, the iNOS-AS level entry in data set [6] was “inhibited iNOS-AS in a concentration-dependent manner”. The IC50 in data set [3] (setting [10]) came to 16.8 ± 7.93 µM.

For `O=C(O)[C@H]1O[C@@H](Oc2cc3oc(-c4ccccc4)cc(=O)c3c(O)c2O)[C@H](O)[C@@H](O)[C@@H]1O` [Baicalin], in [3] (IL-1β-treated hepatocytes, greater than baicalein), the “IC50 relative to that of baicalein” value is listed as 3.3 fold. In data set [3] (authors' unpublished data (A.F., K.I., M.N.), read-out: IC50 for NO production in IL-1β-treated hepatocytes), the IC50 came out at 55 µM.

Consider `COc1ccc2cc3[n+](cc2c1OC)CCc1cc2c(cc1-3)OCO2` [Berberine], for which the IC50 in [4] (setting [12]) is 12 ± 3.4 µM.

`O=C(/C=C/c1ccc(O)c(O)c1)O[C@@H]1C[C@](O)(C(=O)O)C[C@@H](O)[C@H]1O` [Chlorogenic acid]: the iNOS-AS level entry in data set [7] was “reducing iNOS-AS”. Further, in [4] (setting [12]), the IC50 was 652 ± 114 µM.

Regarding `COC(=O)C1=CO[C@@H](O)[C@@H]2C(CO)=CC[C@H]12` [Genipin, genipin], the iNOS-AS level entry in [7] is “reducing iNOS-AS”. The IC50 in [3] (setting [10]) came to 4.4 ± 0.85 µM.

For the compound `O=c1cc(-c2ccc(Oc3ccc(-c4cc(=O)c5c(O)cc(O)cc5o4)cc3O)cc2)oc2cc(O)cc(O)c12` [Loniflavone, loniflavone], the “Il1r1 mRNA level” value in the data set on Il1r1 mRNA [1] is “significantly decreased”. The “Cytotoxicity / LDH activity” value in [2] is recorded as “Cytotoxicity was not observed”. In the data set with iNOS mRNA, the “iNOS mRNA level” value was “decreased”. The “Tnf mRNA level” value in the data set with Tnf mRNA is given as “decreased”. For the same compound, in [3] (setting [10]), the IC50 was 1.64 ± 0.17 µM.

Turning to `CC1(C)OC(=O)C=C[C@]2(C)[C@H]3CC[C@@]4(C)[C@H](c5ccoc5)OC(=O)[C@H]5O[C@]54[C@]3(C)C(=O)C[C@@H]12` [Obakunone], the iNOS-AS level result in [7] is on record as “reducing iNOS-AS”. In data set [4] (setting [12]), the IC50 is 2.6 ± 1.1 µM.

For `COc1cc(O)c2c(c1)O[C@H](c1ccc(O)cc1)CC2=O` [Sakuranetin, (S)-(–)-4′,5-dihydroxy-7-methoxyflavanone], in the data set on Il1r1 mRNA [8], the Il1r1 gene expression entry is listed as “decreases”.

As for `CC(=O)Oc1ccccc1C(=O)O` [aspirin], the Il1r1 gene expression result in the data set with Il1r1 mRNA [8] (rat hepatocytes) is on record as “suppress”.

Turning to `C/C=C/C#CC#C/C=C/c1ccco1` [atractylodin], the IC50 in [4] (constituents of Atractylodes chinensis rhizomes, read-out: IC50 for inhibition of NO production in hepatocytes) is 8.25 µM.

For `C=C(C)[C@@H]1CC[C@]2(C(=O)O)CC[C@]3(C)[C@H](CC[C@@H]4[C@@]5(C)CC[C@H](O)C(C)(C)[C@@H]5CC[C@]43C)[C@@H]12` [betulinic acid, reference compound], in data set [2], the “Cytotoxicity / LDH activity” value is given as “increased LDH activity in a concentration-dependent manner”.

As to `COC(=O)C1=CO[C@@H](O[C@@H]2O[C@H](CO)[C@@H](O)[C@H](O)[C@H]2O)[C@@H]2C(CO)=CC[C@H]12` [geniposide], in data set [9], the IC50 was 136 µM. For the same compound, the “Effect on IL-1β-induced NO production” value in data set [3] (IL-1β-treated hepatocytes) is reported as “did not decrease NO production”. Besides, the “Inhibition of NO production” value in [3] (up to a final concentration of 800 μM) is on record as “did not inhibit NO production”.

For the compound `CC(C(=O)O)c1ccc(CC2CCCC2=O)cc1` (centres unmarked) [loxoprofen], the Il1r1 gene expression entry in the data set with Il1r1 mRNA [8] (rat hepatocytes) is “suppress”.

As to `CC1(C)CC[C@]2(C(=O)O)CC[C@]3(C)C(=CC[C@@H]4[C@@]5(C)CC[C@H](O)C(C)(C)[C@@H]5CC[C@]43C)[C@@H]2C1` [oleanolic acid, reference compound], the “Cytotoxicity / LDH activity” value in [2] is given as “increased LDH activity in a concentration-dependent manner”.

Take `C=C1CCC[C@]2(C)CC[C@@H](C(C)(C)O)C[C@@H]12` [β-eudesmol]: in [4] (setting [11]), the “IC50 for inhibition of NO production in hepatocytes” value is recorded as “could not be calculated”.

Values taken from publication PMC11768083, “Crude Drugs for Clearing Heat Contain Compounds Exhibiting Anti-Inflammatory Effects in Interleukin-1β-Treated Rat Hepatocytes” (Molecules, 2025).
